This is an account of results in PubChem BioAssay (NCI).

Among the test systems are A498 renal; CAKI-1 renal; CCRF-CEM leukemia; HOP-62 NSCLC; IGROV1 ovarian; KM12 colon; NCI/ADR-RES ovarian; OVCAR-4 ovarian; SNB-75 CNS; HS 578T breast.
What all share (experiment): NCI tumour cell line growth inhibition, 48 h

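Cultured in 96-well plates, cells were exposed to test compound for 48 hours across five concentrations. Abbreviation: GI50, concentration required for 50% inhibition of growth. TGI: concentration producing complete growth inhibition.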 A value given as a limit tells only on which side of the number the result lay.

In the case of `[C-]#[O+].[Cl][Sn]([Cl])[Cl].[Cl][Sn]([Cl])[Cl].[Pt].c1cnc2c(c1)ccc1cccnc12`, the TGI in the assay with A498 renal was 13.3 µM; with CAKI-1 renal, above 100 µM; in the assay with CCRF-CEM leukemia it was above 29.8 µM; with HOP-62 NSCLC it was 45.3 µM; in the assay on IGROV1 ovarian, 35.7 µM; with KM12 colon, above 100 µM. For the same compound, the figures for the TGI in the assay with NCI/ADR-RES ovarian, in the assay on OVCAR-4 ovarian and with SNB-75 CNS were 10.1 µM, above 27.4 µM and 61.6 µM, respectively.
Regarding `O=C(O)CCCc1ccc2c(c1)C(C(=O)O)CC2` (stereo unspecified), the TGI in the assay with CAKI-1 renal, in the assay on CCRF-CEM leukemia, in the assay with HOP-62 NSCLC, in the assay with HS 578T breast, with IGROV1 ovarian and in the assay with KM12 colon was above 100 µM in each case. Further, the TGI with NCI/ADR-RES ovarian, in the assay with OVCAR-4 ovarian and in the assay on SNB-75 CNS was above 100 µM in each case.
Turning to `CCOC(=O)C(Cc1ccc(N=NN(C)C)cc1)NC(=O)CC1c2ccccc2-c2ccccc21` (stereo unspecified), the TGI in the assay with A498 renal, with CAKI-1 renal, with CCRF-CEM leukemia, with HOP-62 NSCLC, in the assay on IGROV1 ovarian and in the assay on KM12 colon was above 100 µM each time. In addition, the TGI in the assay on OVCAR-4 ovarian and with SNB-75 CNS was above 100 µM each time.
Take `C/C(CCN(C)C)=N/O`: the TGI was determined as 35.1 µM with A498 renal; 24.2 µM with CAKI-1 renal; 7.14 µM in the assay on CCRF-CEM leukemia; 57 µM in the assay with HOP-62 NSCLC; 39.2 µM with IGROV1 ovarian; 25.5 µM in the assay with KM12 colon. For the same compound, the TGI with SNB-75 CNS worked out at 33 µM.
As to `Cc1cc(-c2ccc(N=Nc3ccc4c(S(=O)(=O)O)cc(S(=O)(=O)O)c(N)c4c3O)c(C)c2)ccc1N=Nc1ccc2c(S(=O)(=O)O)cc(S(=O)(=O)O)c(N)c2c1O`, the TGI in the assay with A498 renal, with CCRF-CEM leukemia, in the assay on HOP-62 NSCLC, with IGROV1 ovarian, with KM12 colon and in the assay with NCI/ADR-RES ovarian was above 100 µM throughout. Besides, the TGI in the assay with OVCAR-4 ovarian and in the assay on SNB-75 CNS was above 100 µM in each case.
For the compound `CN1C(c2ccccc2)CC(O)CC1c1ccccc1` (stereo unspecified), the TGI in the assay with A498 renal, in the assay with CAKI-1 renal, in the assay on CCRF-CEM leukemia, with HOP-62 NSCLC, with IGROV1 ovarian and in the assay on KM12 colon was above 100 µM in each case. The TGI in the assay with OVCAR-4 ovarian and in the assay with SNB-75 CNS was above 100 µM each time.
With `Cc1cccc2c1nc1n2C(=O)c2ccccc2-1`, the TGI in the assay on CAKI-1 renal, in the assay on CCRF-CEM leukemia, in the assay with IGROV1 ovarian, in the assay on KM12 colon, with NCI/ADR-RES ovarian and in the assay on OVCAR-4 ovarian was above 100 µM in each case. The compound also had a TGI in the assay with SNB-75 CNS above 100 µM.
`CC(C)(C)C(=O)c1c(O)c2ccccc2c2ccccc2c1=O`: the TGI in the assay with A498 renal, with CAKI-1 renal, in the assay with CCRF-CEM leukemia, in the assay with HOP-62 NSCLC, in the assay on HS 578T breast and in the assay on KM12 colon was above 100 µM in each case. The TGI in the assay with OVCAR-4 ovarian and in the assay with SNB-75 CNS was above 100 µM each time.
As for `O=C(O)C1CCC(=O)N1C(=O)COc1cc(Cl)c(Cl)cc1Cl` (stereo unspecified), the TGI in the assay with A498 renal, with CAKI-1 renal, with IGROV1 ovarian, in the assay on KM12 colon, with OVCAR-4 ovarian and in the assay on SNB-75 CNS was above 100 µM in each case.
As to `CC(=O)c1c(-c2ccc(Cl)cc2)c(C#N)c(=S)n(C2OC(CO)C(O)C(O)C2O)c1C` (stereo unspecified), the TGI is above 100 µM with A498 renal; 63.7 µM in the assay on CCRF-CEM leukemia; above 100 µM with HOP-62 NSCLC; above 100 µM in the assay on IGROV1 ovarian; above 100 µM with KM12 colon; above 100 µM with NCI/ADR-RES ovarian. Also, the TGI in the assay on OVCAR-4 ovarian and with SNB-75 CNS was above 100 µM each time.
Consider `NCCCNc1nc2ccccc2c2c(=O)c3cc(Cl)ccc3sc12`, for which the GI50 with A498 renal is 3.22 µM; in the assay on CAKI-1 renal it was 1.49 µM; in the assay on HS 578T breast it was 2.01 µM; in the assay on SNB-75 CNS, 1.4 µM. Besides, the TGI with A498 renal is 12.1 µM; in the assay with CAKI-1 renal, 2.86 µM; in the assay with HS 578T breast it was 5.24 µM; with SNB-75 CNS, 2.79 µM.
Turning to `Cc1cc2nc(N3C(=O)/C(=C/Cc4ccco4)N=C3c3ccccc3)sc2cc1C`, the TGI with CAKI-1 renal was above 100 µM; in the assay on CCRF-CEM leukemia, 28.1 µM; with HOP-62 NSCLC, above 100 µM; with HS 578T breast, above 100 µM; in the assay with IGROV1 ovarian, above 100 µM; with KM12 colon, above 100 µM. The TGI is above 100 µM in the assay on NCI/ADR-RES ovarian, above 100 µM in the assay with OVCAR-4 ovarian and 59.9 µM in the assay on SNB-75 CNS.
Regarding `COC(=O)[C@H](C)NC(=O)[C@H](NS(=O)(=O)c1nc2ccccc2s1)c1ccccc1`, the TGI with CAKI-1 renal is 67.2 µM; in the assay on CCRF-CEM leukemia, above 100 µM; with HOP-62 NSCLC, 74.4 µM; with HS 578T breast it was 36.5 µM; in the assay with IGROV1 ovarian, above 100 µM; with KM12 colon, 30.5 µM. Further, the TGI in the assay on NCI/ADR-RES ovarian is above 100 µM; in the assay with OVCAR-4 ovarian it was above 100 µM; with SNB-75 CNS, 39.4 µM.
With `COCOC1CCCC[C@@]1(OCCOCCO[C@@]1(c2ccccc2)CCCC[C@H]1OCOC)c1ccccc1` (stereo partly specified), the TGI in the assay on CAKI-1 renal, in the assay on CCRF-CEM leukemia, in the assay with HOP-62 NSCLC, with IGROV1 ovarian, in the assay with KM12 colon and in the assay on OVCAR-4 ovarian was above 100 µM in each case. Also, the TGI in the assay with SNB-75 CNS was 84.3 µM.
For the compound `CC(=O)OC12c3ccccc3C(c3ccccc31)C1C(=O)N(N=C(C)C)C(=O)C12` (stereo unspecified), the TGI in the assay with CAKI-1 renal, in the assay with CCRF-CEM leukemia, in the assay with HOP-62 NSCLC, in the assay on HS 578T breast, with IGROV1 ovarian and in the assay with KM12 colon was above 100 µM each time. Also, the TGI in the assay on NCI/ADR-RES ovarian, in the assay with OVCAR-4 ovarian and in the assay with SNB-75 CNS was above 100 µM throughout.
For `CC(C)(NO)/C(=N\O)c1ccccc1`, the TGI with CAKI-1 renal, with CCRF-CEM leukemia, with HOP-62 NSCLC, with KM12 colon, in the assay on NCI/ADR-RES ovarian and in the assay with OVCAR-4 ovarian was above 10 µM in each case.
